Measurements from PMC8400343, “Synthesis and Evaluation of the Antidepressant-like Properties of HBK-10, a Novel 2-Methoxyphenylpiperazine Derivative Targeting the 5-HT1A and D2 Receptors” (Pharmaceuticals, 2021).
Where two headings read alike, the source gives them in different places.

Biological target: T1, human serotonin 5-HT1A receptor (Homo sapiens, UniProt P08908)
T1 construct: expressed in transfected cells; host or cells: CHO-K1 (cryopreserved, whole cells)
T1 sequence (P08908 1-422): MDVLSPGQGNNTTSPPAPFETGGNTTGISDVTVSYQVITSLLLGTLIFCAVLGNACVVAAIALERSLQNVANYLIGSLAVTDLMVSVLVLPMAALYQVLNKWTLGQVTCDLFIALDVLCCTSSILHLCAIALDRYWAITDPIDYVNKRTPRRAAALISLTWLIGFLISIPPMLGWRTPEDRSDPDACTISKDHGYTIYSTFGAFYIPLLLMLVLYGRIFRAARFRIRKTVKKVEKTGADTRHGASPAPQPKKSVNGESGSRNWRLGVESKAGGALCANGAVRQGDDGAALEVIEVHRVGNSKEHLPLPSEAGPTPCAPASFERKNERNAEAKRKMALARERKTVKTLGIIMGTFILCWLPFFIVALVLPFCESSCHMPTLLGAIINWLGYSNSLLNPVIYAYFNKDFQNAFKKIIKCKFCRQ
Assay: Functional assay, inhibition of cAMP production, CHO-K1 cells
Format: cell-based
Procedure: Tested and reference compounds were dissolved in dimethyl sulfoxide (DMSO) at a concentration of 10 mM. Serial dilutions were prepared in 96-well microplate in assay buffer, and 8 to 10 concentrations were tested. […] Thawed cells were resuspended in stimulation buffer (HBSS, 5 mM HEPES, […], and 0.1% BSA at pH 7.4) at 2 × 10^5 cells/mL. The 10 µL of cell suspension was added to tested compounds with 10 µM forskolin. Samples were loaded onto a white opaque half area 96-well microplate. […] The agonist and antagonist were added simultaneously. Cell stimulation was performed for 40 min at room temperature. After incubation, cAMP measurements were performed with homogeneous TR-FRET immunoassay using the LANCE Ultra cAMP kit (PerkinElmer, Waltham, MA, USA). Ten microliters of EucAMP Tracer Working Solution and 10 µl of ULight-anti-cAMP Tracer Working Solution were added, mixed, and incubated for 1 h. The TR-FRET signal was read on an EnVision microplate reader (PerkinElmer, USA). IC50 and EC50 were determined by nonlinear regression analysis using GraphPad Prism 6.0 software.

In the case of `CCC(CN1CCN(c2ccccc2OC)CC1)NCCCOc1c(C)cccc1C.Cl.Cl` (centres unmarked) [HBK-10, N-(3-(2,6-dimethylphenoxy)propyl)-1-(4-(2-methoxyphenyl)piperazin-1-yl)butan-2-amine dihydrochloride], the “Kb, fold lower compared with NAN-190” value (5-HT1A, antagonist mode) is reported as 10 fold, the Kb (5-HT1A, antagonist mode, Cheng–Prusoff equation) is reported as 0.064 µM and the Emax (CHO-K1, read-out: Emax %, agonist mode) is reported as 2%. It also gave an Emax (CHO-K1, read-out: Emax %, antagonist mode) of 0% and an IC50 (read-out: pIC50 ± SEM, antagonist mode (converted)) of 0.191 µM.
